Drawing on PubChem BioAssay (NCI), this text covers TGI for ten molecules.

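Values below derive from 48-hour exposures of cells grown in 96-well plates, with endpoints linearly interpolated between the two concentrations bracketing the appropriate inhibition level. TGI: total growth inhibition.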

Among the test systems are SF-539 CNS; DU-145 prostate; TK-10 renal; CAKI-1 renal; NCI/ADR-RES ovarian; SF-268 CNS; SF-295 CNS; SNB-19 CNS; OVCAR-4 ovarian; SR leukemia; COLO 205 colon.
Common to all, as to experiment: NCI-60 cell line screen, 48 h

Take `CN(C)c1ccc(C2CC(=O)CC(c3ccc(N(C)C)cc3)C23C(=O)NC(=O)NC3=O)cc1` (stereo not given): the TGI in the assay on SF-539 CNS, with DU-145 prostate, in the assay with TK-10 renal, in the assay on CAKI-1 renal, with NCI/ADR-RES ovarian and in the assay on SF-268 CNS was more than 25 µM in each case. Moreover, the TGI with SF-295 CNS, in the assay on SNB-19 CNS, in the assay with OVCAR-4 ovarian, with SR leukemia and with COLO 205 colon was more than 25 µM throughout.

Consider `O=C1C(NCCc2cc(Br)c(O)c(Br)c2)=CC(=O)c2ncccc21`, for which the TGI in the assay on SF-539 CNS was 5.36 µM; in the assay on DU-145 prostate it was 12 µM; in the assay on TK-10 renal, 73 µM; in the assay with CAKI-1 renal, 25 µM; in the assay with NCI/ADR-RES ovarian, 49.5 µM; in the assay on SF-268 CNS, 40.3 µM. The TGI in the assay on SF-295 CNS is 12.9 µM; with SNB-19 CNS it was 27.5 µM; in the assay with OVCAR-4 ovarian, 16.7 µM; in the assay on SR leukemia it was 6.46 µM; in the assay on COLO 205 colon, 19.2 µM.

Turning to `Nc1ncc2c(n1)-c1ccccc1OC2NC1CC1` (stereo not given), the TGI in the assay with SF-539 CNS, with DU-145 prostate, with TK-10 renal, with CAKI-1 renal, in the assay with NCI/ADR-RES ovarian and with SF-268 CNS was more than 100 µM throughout. In addition, the TGI in the assay on SF-295 CNS, with SNB-19 CNS, in the assay with OVCAR-4 ovarian, with SR leukemia and in the assay with COLO 205 colon was more than 100 µM throughout.

Consider `CCC(=O)N(c1ccccc1)C(C)CN1CCC(O)(c2ccccc2)CC1` (stereo not given), for which the TGI in the assay on SF-539 CNS, in the assay on DU-145 prostate, with TK-10 renal, with CAKI-1 renal, in the assay with NCI/ADR-RES ovarian and in the assay on SF-268 CNS was more than 100 µM each time. Further, the TGI in the assay on SF-295 CNS, in the assay on SNB-19 CNS, with OVCAR-4 ovarian, with SR leukemia and in the assay on COLO 205 colon was more than 100 µM throughout.

Turning to `CN(C)c1ccc(C(C#N)N2CCCN(C(C#N)c3ccc(N(C)C)cc3)C2c2ccc(N(C)C)cc2)cc1` (stereo not given), the TGI with SF-539 CNS, in the assay with DU-145 prostate, with TK-10 renal, in the assay with CAKI-1 renal, with NCI/ADR-RES ovarian and in the assay with SF-268 CNS was more than 100 µM throughout. Besides, the TGI in the assay with SF-295 CNS, in the assay on SNB-19 CNS, in the assay with OVCAR-4 ovarian, in the assay on SR leukemia and in the assay with COLO 205 colon was more than 100 µM in each case.

Regarding `CCOP(=O)(CS(C)=O)O[C@@H]1C[C@H](C)CC[C@H]1C(C)C` (stereo not given in full), the TGI was determined as 26.9 µM in the assay with SF-539 CNS; 26.2 µM with DU-145 prostate; 16.3 µM in the assay with TK-10 renal; 12.8 µM in the assay on CAKI-1 renal; 26 µM in the assay with NCI/ADR-RES ovarian; 21.3 µM with SF-268 CNS. Further, the TGI in the assay with SF-295 CNS is 18.5 µM; in the assay with SNB-19 CNS, 25.7 µM; in the assay on OVCAR-4 ovarian, more than 39.3 µM; with SR leukemia, more than 100 µM; in the assay on COLO 205 colon it was 19.8 µM.

As to `C/C(C=O)=N\Nc1cc(C)c2ccccc2n1`, the TGI came out at 28.8 µM in the assay with SF-539 CNS; 29.9 µM in the assay with DU-145 prostate; 29.5 µM in the assay on TK-10 renal; 30.7 µM in the assay with CAKI-1 renal; 31 µM with NCI/ADR-RES ovarian; 43.2 µM in the assay with SF-268 CNS. For the same molecule, the TGI stood at 39.4 µM in the assay with SF-295 CNS; 52 µM in the assay with SNB-19 CNS; 27.8 µM in the assay with OVCAR-4 ovarian; 4.17 µM in the assay on SR leukemia; 33.2 µM in the assay on COLO 205 colon.

For the molecule `COc1ccc(CSCc2cc(OC)c(OC)c(OC)c2)cc1`, the TGI with SF-539 CNS was more than 100 µM; with DU-145 prostate it was more than 100 µM; in the assay on TK-10 renal, more than 100 µM; in the assay on CAKI-1 renal, more than 100 µM; in the assay with NCI/ADR-RES ovarian, more than 31.6 µM; in the assay on SF-268 CNS it was more than 100 µM. In addition, the TGI with SF-295 CNS, in the assay on SNB-19 CNS, in the assay with OVCAR-4 ovarian, in the assay with SR leukemia and in the assay with COLO 205 colon was more than 100 µM each time.

As for `CC(=O)OCC(OC(C)=O)C(OC(C)=O)C(/C=N/N(C(C)=O)S(=O)(=O)c1ccc(/C=C2\NC(=O)NC2=O)cc1)OC(C)=O` (stereo not given), the TGI in the assay on SF-539 CNS, in the assay on DU-145 prostate, in the assay with TK-10 renal, in the assay on CAKI-1 renal, with NCI/ADR-RES ovarian and in the assay with SF-268 CNS was more than 100 µM in each case. Moreover, the TGI in the assay on SF-295 CNS, in the assay on SNB-19 CNS, in the assay with OVCAR-4 ovarian, in the assay with SR leukemia and with COLO 205 colon was more than 100 µM each time.

Turning to `O=C(CNC(=O)OCc1ccccc1)NCCCCC(NC(=O)OCc1ccccc1)C(=O)O` (stereo not given), the TGI in the assay with SF-539 CNS, in the assay with DU-145 prostate, in the assay on TK-10 renal, in the assay with CAKI-1 renal, in the assay with NCI/ADR-RES ovarian and in the assay on SF-268 CNS was more than 100 µM throughout. Also, the TGI in the assay on SF-295 CNS, in the assay with SNB-19 CNS, in the assay on OVCAR-4 ovarian, with SR leukemia and with COLO 205 colon was more than 100 µM throughout.
